Laboratory results from ChEMBL document CHEMBL5346923, “Novel pyridinium cationic pleuromutilin analogues overcoming bacterial multidrug resistance” (Eur J Med Chem, 2023).
Active and inactive are the calls of the source. The calls are words filed in the database; no cut-off is given here.

Assays:
[1] = system: Enterococcus hirae; test: Antibacterial activity against clinical isolate Enterococcus hirae assessed as inhibition of bacterial growth measured after 24 hrs by MH broth based assay; assay type: functional
[2] = system: Staphylococcus aureus; test: Antibacterial activity against 2 times of MIC treated methicillin-resistant Staphylococcus aureus […] assessed as post-antibiotic sub-MIC effect by measuring time required for increase in log10 CFU/ml of bacteria at 0.25 to 0.5 times of MIC incubated for 1 hr by MH broth based assay; assay type: functional
[3] = system: Staphylococcus aureus; test: Antibacterial activity against multi-drug resistant Staphylococcus aureus sa1 infected in BABL/C mouse assessed as survival rate at 10 mg/kg, ip measured upto 7 days; assay type: functional; settings: sa1, 168 h, time <= 7 day
[4] = system: Staphylococcus aureus; test: Antibacterial activity against clinical isolate Staphylococcus aureus harbouring tet38 gene assessed as inhibition of bacterial growth measured after 24 hrs by MH broth based assay; assay type: functional
[5] = system: Enterococcus lactis; test: Antibacterial activity against clinical isolate Enterococcus lactis assessed as inhibition of bacterial growth measured after 24 hrs by MH broth based assay; assay type: functional
[6] = system: Staphylococcus aureus; test: Antibacterial activity against Staphylococcus aureus ATCC 29213 assessed as inhibition of bacterial growth measured after 24 hrs by MH broth based assay; assay type: functional
[7] = system: HEK293; test: Cytotoxicity against HEK293 cells assessed as reduction in cell viability at 7.5 to 1000 ug/ml incubated for 6 hrs by CCK-8 assay; assay type: toxicity, cell-based; settings: human, hek293, 6 h, dose 7.5-1000 µg/ml
[8] = system: Staphylococcus aureus; test: Antibacterial activity against clinical isolate multi-drug resistant Staphylococcus aureus sal assessed as inhibition of bacterial growth; assay type: functional
[9] = system: Cell membrane; test: Disruption of membrane integrity in Staphylococcus aureus ATCC 29213 at 1 to 6 times of MIC by DAPI/propidium iodide staining based fluorescence microscopic analysis; assay type: subcellular
[10] = Toxicity in po dosed BABL/C mouse assessed as lethal dose measured upto 14 days; assay type: organism-based; settings: in vivo, time < 14 day
[11] = system: Staphylococcus aureus; test: Antibacterial activity against clinical isolate multi-drug resistant Staphylococcus aureus sal assessed as reduction in log10 CFU at 6 times of MIC measured after 8 hrs by time-kill assay; assay type: functional
[12] = system: Staphylococcus aureus; test: Antibacterial activity against clinical isolate Staphylococcus aureus harbouring IsaE gene assessed as inhibition of bacterial growth measured after 24 hrs by MH broth based assay; assay type: functional
[13] = system: Staphylococcus aureus; test: Antibacterial activity against multi-drug resistant Staphylococcus aureus sa1 infected in ip dosed BABL/C mouse assessed as survival rate measured upto 7 days; assay type: functional; settings: sa1, 168 h, time <= 7 day
[14] = system: Streptococcus pneumoniae; test: Antibacterial activity against clinical isolate Streptococcus pneumoniae harbouring ermB gene assessed as inhibition of bacterial growth measured after 24 hrs by MH broth based assay; assay type: functional
[15] = system: Staphylococcus epidermidis; test: Antibacterial activity against methicillin-resistant Staphylococcus epidermidis ATCC 51625 assessed as inhibition of bacterial growth measured after 24 hrs by MH broth based assay; assay type: functional
[16] = system: Staphylococcus aureus; test: Antibacterial activity against methicillin-resistant Staphylococcus aureus ATCC 43300 assessed as inhibition of bacterial growth measured after 24 hrs by MH broth based assay; assay type: functional
[17] = system: Streptococcus parasuis; test: Antibacterial activity against clinical isolate Streptococcus parasuis harbouring optrA gene assessed as inhibition of bacterial growth measured after 24 hrs by MH broth based assay; assay type: functional
[18] = system: Staphylococcus aureus; test: Antibacterial activity against compound-resistant/methicillin-resistant Staphylococcus aureus assessed as inhibition of bacterial growth; assay type: functional
[19] = system: Klebsiella pneumoniae; test: Antibacterial activity against clinical isolate Klebsiella pneumoniae harbouring mcr-8 gene assessed as inhibition of bacterial growth measured after 24 hrs by MH broth based assay; assay type: functional
[20] = system: Staphylococcus aureus; test: Antibacterial activity against methicillin-resistant Staphylococcus aureus infected in rabbit RBC assessed as reduction in haemolysis by measuring haemoglobin level at 0.25 to 1 times of MIC by absorbance based analysis; assay type: functional, organism-based; settings: Erythrocyte
[21] = system: Streptococcus hyovaginalis; test: Antibacterial activity against clinical isolate Streptococcus hyovaginalis harbouring IsaE and optrA gene assessed as inhibition of bacterial growth measured after 24 hrs by MH broth based assay; assay type: functional
[22] = system: Streptococcus parasuis; test: Antibacterial activity against clinical isolate Streptococcus parasuis harbouring InuD gene assessed as inhibition of bacterial growth measured after 24 hrs by MH broth based assay; assay type: functional
[23] = system: Staphylococcus aureus; test: Antibacterial activity against methicillin-resistant Staphylococcus aureus […] assessed as post antibacterial effect by measuring time required for increase in log10 CFU/ml of bacteria at 4 times of MIC incubated for 1 hr by MH broth based assay; assay type: functional

## C=C[C@]1(C)C[C@@H](OC(=O)CSc2cc[n+](CCCCCCC)cc2)[C@]2(C)[C@H](C)CC[C@]3(CCC(=O)[C@H]32)[C@@H](C)[C@@H]1O.[I-]
[1]
  MIC: 0.25 µg/mL
[2]
  Time: 2.62 h
[3]
  survival at 10 mg/kg: 66%
[4]
  MIC: 0.125 µg/mL
[5]
  MIC: 32 µg/mL
[6]
  MIC: 0.063 µg/mL
[7]
  Activity: Non-Toxic
[8]
  MIC: 8 µg/mL
[9]
  Activity: Active
[10]
  LD50 at 336 h: 879 mg/kg
[11]
  Activity: 2 log10CFU/ml
[12]
  MIC: 8 µg/mL
[13]
  ED50: 5.68 mg/kg
[14]
  MIC: 0.5 µg/mL
[15]
  MIC: 0.063 µg/mL
[16]
  MIC: 0.063 µg/mL
[17]
  MIC: 16 µg/mL
[18]
  MIC: 0.5 µg/mL
[19]
  MIC: 2 µg/mL
[20]
  Activity: Active
[21]
  MIC: 32 µg/mL
[22]
  MIC: 16 µg/mL
[23]
  Time: 2.56 h
